The data set can be described thus: solvent given as SMILES.

The source of these data is the Deep4Chem optical property database.

Structures are written as SMILES.

Turning to `CCCCN(CCCC)c1ccc(/C=C/c2ccc3nc(-c4ccccc4)c(/C=C/c4ccc(N(C)C)cc4)nc3c2)cc1`, the emission maximum (in C1COCCO1) was found to be 540 nm, the emission maximum (in CC#N) stood at 650 nm and the emission maximum (in ClCCl) is 627 nm.

On to `COc1cc(OC)cc(C2=C3C(C)=C(I)C(C)=[N+]3[B-](F)(F)n3c(/C=C/c4ccsc4)c(I)c(C)c32)c1`, for which the emission maximum runs as follows: (in C1CCOC1) 610 nm; (in CS(C)=O) 621 nm; (in ClCCl) 610 nm.

For the molecule `COc1ccc(OC)c(C=O)c1`, the emission maximum is recorded as 410 nm (in CC(C)=O); 458 nm (in CCCO); 459 nm (in CCO); 458 nm (in CNC=O); 466 nm (in CO); 431 nm (in CS(C)=O). Moreover, the emission maximum runs as follows: (in ClC(Cl)Cl) 427 nm; (in NC=O) 464 nm.

Regarding `Cc1oc2c(Cl)cc3c(C)cc(=O)oc3c2c1C`, the emission maximum (in C1CCCCC1) is given as 403 nm; the emission maximum (in C1COCCO1) is on record as 416 nm; the emission maximum (in CC#N) came to 431 nm; the emission maximum (in CCO) amounted to 440 nm; the emission maximum (in OCC(F)(F)F) was found to be 469 nm.

For the molecule `CCCCCCN1C(=O)c2cccc3c(-c4ccc(Cl)s4)ccc(c23)C1=O`, where the note is “in ClC(Cl)Cl”, the emission maximum was 482 nm.

With `COC(=O)c1cc2c(cc3ccc4cccc5ccc2c3c45)[nH]1`, the emission maximum (in C1CCOC1) was 404 nm.

In turn, `CCc1ccccc1-c1c2ccccc2c(C#Cc2ccccc2)c2cc3ccccc3cc12` registered an emission maximum (in ClCCl) of 537 nm.

For `COc1ccc(Oc2ccc3c4c(cccc24)C(=O)N(c2c(C(C)C)cccc2C(C)C)C3=O)cc1`, the emission maximum (in ClCCl) amounted to 434 nm.

In the case of `Nc1ccc2c(-c3ccc(Br)cc3)c3ccc(=[NH2+])cc-3oc2c1`, the emission maximum (in CCO) was 532 nm.

For the molecule `CCN(CC)c1ccc2c(-c3ccccc3C(=O)O)c3c([o+]c2c1)/C(=C/c1ccc2c(c1)c1ccccc1n2CC)CCC3`, the emission maximum (in ClCCl) amounted to 712 nm.

As to `CC1=[N+]2C(=C(c3ccccc3)c3c4c(c(C)n3[B-]2(F)F)C2CCC4CC2)C2=C1C1CCC2CC1`, the emission maximum (in CC#N) is reported as 543 nm.

`O=c1oc2cc(S(=O)(=O)O)c3ccccc3c2nc1-c1ccccc1`: the emission maximum (in CC#N) is recorded as 480 nm.

Regarding `CC1=CC(C)=[N+]2C1=C(c1ccc(I)cc1)c1c(C)cc(C)n1[B-]2(OCc1ccccc1)OCc1ccccc1`, the emission maximum (in ClC(Cl)Cl) amounted to 521.92 nm.

Turning to `CC(=O)c1c2c(cc3c(N(C)C)cccc13)CCC2`, the emission maximum by setting is: (in C1CCCCC1) 480 nm; (in C1CCOC1) 543 nm; (in C1COCCO1) 534 nm; (in CC#N) 590 nm; (in CCO) 634 nm; (in CS(C)=O) 598 nm. For the same molecule, the emission maximum came to 520 nm (in Cc1ccccc1), 562 nm (in ClC(Cl)Cl) and 562 nm (in ClCCl).

Consider `CCCC1(CCC)c2cc(-c3ccc4c(c3)C(CCC)(CCC)c3cc(-c5ccc6c(c5)C(CCC)(CCC)c5cc(C(C)(C)CC)ccc5-6)ccc3-4)ccc2-c2ccc(-c3ccc4c(c3)C(CCC)(CCC)c3cc(C(C)(C)CC)ccc3-4)cc21`, for which the emission maximum (in C1CCCCC1) is 407 nm.

Under “in Cc1ccccc1”, `COc1ccc(C2=C(Br)C(c3ccccc3)=[N+]3C2=Nc2c(-c4ccc(OC)cc4)c(Br)c(-c4ccccc4)n2[B-]3(F)F)cc1` came in with an emission maximum of 691 nm.

In turn, `C(#Cc1nccnc1C#Cc1ccccc1)c1ccccc1` had an emission maximum (in CC#N) of 380 nm.

With `CN(C)c1ccc(C2=Nc3sc4cc(Cl)ccc4[n+]3[B-](F)(F)O2)cc1`, the emission maximum reads like this: (in C1CCOC1) 477 nm; (in CC#N) 491 nm; (in CC(C)=O) 488 nm; (in Cc1ccccc1) 456 nm; (in ClCCl) 473 nm.

For `CN(C)c1ccc2c3c(ccc2c1)CCCC3=O`, the emission maximum was determined as 449 nm (in C1CCCCC1); 523 nm (in CC#N); 520 nm (in CC(C)O); 517 nm (in CCC(C)=O); 495 nm (in CCO); 506 nm (in CCOC(C)=O). Moreover, the emission maximum (in CS(C)=O) is on record as 538 nm, the emission maximum (in Cc1ccccc1) amounted to 478 nm, the emission maximum (in ClCCl) stood at 511 nm and the emission maximum (in Clc1ccccc1) came out at 498 nm.

Regarding `F[B-]1(F)Oc2ccccc2-c2cc(-n3c4ccccc4c4ccccc43)cc[n+]21`, the emission maximum (in Cc1ccccc1) is listed as 449 nm and the emission maximum (in O=P(c1ccccc1)(c1ccccc1)c1ccccc1Oc1ccccc1P(=O)(c1ccccc1)c1ccccc1) amounted to 475 nm.

Regarding `Cc1cc(O)c(C(=O)/C=C/c2ccccc2[N+](=O)[O-])c(=O)o1`, the emission maximum is reported as 480 nm (in CC#N) and 471 nm (in ClCCl).

`COc1c2ccccc2c(OC)c2c1c1c(C)ccc(OC)c1n2C`: the emission maximum by setting is: (in C1CCCCC1) 427 nm; (in CC#N) 445 nm; (in CO) 440 nm; (in ClCCl) 443 nm.

For the setting “in ClC(Cl)Cl”, `C(#Cc1cccs1)C(C#Cc1cccs1)=Cc1ccc(C=C(C#Cc2cccs2)C#Cc2cccs2)cc1` showed an emission maximum of 498 nm.

For `Cn1nc(-c2ccccc2)c2nc3cc(Cl)ccc3nc21`, the emission maximum was determined as 487 nm (in C1CCCCC1), 519 nm (in C1CCOC1) and 540 nm (in CC#N).

In turn, `CCCCCCCC[Si](C)(C)c1cccc2ccccc12` displayed an emission maximum (in C1CCCCC1) of 329 nm.

The molecule `C(#Cc1nc(C#Cc2ccccc2)c(C#Cc2ccccc2)c(C#Cc2ccccc2)c1C#Cc1ccccc1)c1ccccc1` came in with an emission maximum (in ClCCl) of 438 nm.

Take `CC1(C)CC(/C=C/c2ccc(N3CCOCCOCCOCCOCC3)cc2)=CC(=C(C#N)C#N)C1`: the emission maximum is given as 623 nm (in C1CCOC1); 640 nm (in CC#N); 641 nm (in CCO); 618 nm (in CCOC(C)=O); 625 nm (in ClCCl); 596 nm (in c1ccccc1).

On to `CCCCCCOc1ccc(C#Cc2ccc(C#CC#Cc3ccc(C#Cc4ccc(OCCCCCC)c(OCCCCCC)c4)c4nsnc34)c3nsnc23)cc1OCCCCCC`, for which the emission maximum (in CN(C)C=O) turned out to be 638 nm; the emission maximum (in COc1ccccc1) is 555 nm; the emission maximum (in Cc1ccccc1) stood at 528 nm; the emission maximum (in ClC(Cl)Cl) amounted to 563 nm; the emission maximum (in ClCCCl) is reported as 591 nm; the emission maximum (in ClCCl) was found to be 582 nm.

Regarding `C[Si]1(c2ccccc2)C(c2ccc3c(c2)c2ccccc2n3-c2ccccc2)=C(c2ccccc2)C(c2ccccc2)=C1c1ccc2c(c1)c1ccccc1n2-c1ccccc1`, under “in C1CCOC1”, the emission maximum stood at 526 nm.

The molecule `CC(C)[Si](C#Cc1c2ccccc2c(C#Cc2c3ccccc3c(C#Cc3c4ccccc4c(C#Cc4c5ccccc5c(C#Cc5c6ccccc6c(C#C[Si](C(C)C)(C(C)C)C(C)C)c6ccccc56)c5ccccc45)c4ccccc34)c3ccccc23)c2ccccc12)(C(C)C)C(C)C` came in with an emission maximum (in Cc1ccccc1) of 623 nm.

Under “in ClCCl”, `CC(C)c1cccc(C(C)C)c1N1C(=O)c2ccc3c4c(-c5ccc(C(=O)O)cc5)c5ccc6c7c(cc8c9cc(C(=O)O)ccc9c(c9ccc(c2c39)C1=O)c4c8c57)C(=O)N(c1c(C(C)C)cccc1C(C)C)C6=O` registered an emission maximum of 626 nm.

Molecule `CC(C)[Si](C#Cc1c2nsnc2c(C#C[Si](C(C)C)(C(C)C)C(C)C)c2nc3c4ccccc4c(=O)c4ccccc4c3nc12)(C(C)C)C(C)C` registered an emission maximum (in ClCCl) of 594 nm.

`CCCCc1ccc(-n2c3c4ccc(C(F)(F)F)cc4nc(-c4ccc(C#N)cc4)c3c3c2c2c(-c4ccc(C#N)cc4)nc4cc(C(F)(F)F)ccc4c2n3-c2ccc(CCCC)cc2)cc1` gave an emission maximum (in ClC(Cl)Cl) of 499 nm.

As for `CCCCN(CCCC)c1ccc(/C=C/c2ccc3nc(/C=C/c4ccc(N(C)C)cc4)c(=O)n(CCC)c3c2)cc1`, the emission maximum was 559 nm (in C1COCCO1), 651 nm (in CC#N) and 611 nm (in ClCCl).

Consider `CN(C)c1ccc(/C=C/c2ccc(-c3nnc(-c4ccc(-c5cc6ccccc6s5)cc4)o3)cc2)cc1`, for which the emission maximum by setting is: (in CC#N) 397 nm; (in CC(C)=O) 395 nm; (in CCCCCCCC) 387 nm; (in CCCCCCCCCCO) 394 nm; (in CCCCCCCCO) 398 nm; (in CCCCCO) 399 nm. The emission maximum was 399 nm (in CCCO), 401 nm (in CN(C)C=O), 404 nm (in CO) and 408 nm (in CS(C)=O).

In the case of `O=S1c2ccc(-c3c4ccccc4cc4ccccc34)cc2-c2cc(-c3c4ccccc4cc4ccccc34)ccc21`, the emission maximum runs as follows: (in C1CCCCC1) 405.03 nm; (in CC#N) 508.48 nm; (in ClCCl) 471.15 nm.

With `COc1ccccc1C1=[N+]2C(=Nc3c(-c4ccccc4)cc(-c4ccccc4OC)n3[B-]2(F)F)C(c2ccccc2)=C1`, where the note is “in Cc1ccccc1”, the emission maximum was 688 nm.

As to `O=c1oc2ccccc2cc1-c1ccc(-c2cc3ccccc3oc2=O)cc1`, the emission maximum is, setting by setting: (in CC#N) 426 nm; (in CCO) 426 nm; (in CCOC(C)=O) 426 nm; (in CS(C)=O) 430 nm; (in Cc1ccccc1) 424 nm; (in ClC(Cl)Cl) 430 nm.

In the case of `C(#Cc1ccc(N(c2ccc(C#Cc3ccc(-c4cc(-c5ccccc5)nc(-c5ccccc5)c4)cc3)cc2)c2ccc(C#Cc3ccc(-c4cc(-c5ccccc5)nc(-c5ccccc5)c4)cc3)cc2)cc1)c1ccc(-c2cc(-c3ccccc3)nc(-c3ccccc3)c2)cc1`, the emission maximum runs as follows: (in C1CCOC1) 455 nm; (in Cc1ccccc1) 426 nm.

With `CCC1=C(C)C2=Cc3c(I)c(I)c(I)n3[B-](F)(F)[N+]2=C1C`, the emission maximum stood at 551.5 nm (in C1CCCCC1); 553 nm (in CC(C)=O); 557 nm (in CCO); 553.5 nm (in CCOC(C)=O); 554 nm (in CO); 550.5 nm (in OCC(F)(F)F).
